The target of assay [1] is T1, CDK2/Cyclin E (Homo sapiens, UniProt P24941).
T1 construct: made in house; host or cells: Sf9 insect cells (baculovirus)
In words: CDK2/Cyclin E kinase inhibition, [γ-33P]ATP, histone H1. Type of assay: biochemical. The conditions noted are these: Table 3; read-out: Enzyme inhibition IC50 CDK2/E. Here is the method:
CDK2/Cyclin E and CDK1/Cyclin B kinases were produced in Sf9 insect cells via baculoviral infection and purified on a Ni-NTA column (Qiagen). CDK4/Cyclin D1, CDK5/p35NCK, CDK7/Cyclin H/MAT1 and CDK9/Cyclin T1 were purchased from ProQinase GmbH. […] The reactions were stopped by adding 5 mL of 3% aq. H3PO4. Aliquots were spotted onto P-81 phosphocellulose (Whatman), washed 3 times with 0.5% aq. H3PO4 and finally air-dried. Kinase inhibition was quantified using a FLA-7000 digital image analyzer (Fujifilm). The concentration of the test compounds required to decrease the CDK activity by 50% was determined from dose response curves and designated as IC50.

Assay [2] has as its system HT (diffuse large B-cell lymphoma, subtype—germinal center B-cell). In words: MTT cytotoxicity assay, HT lymphoma cell line. Type of assay: cell-based. The conditions noted are these: Homo sapiens, 72 h, HT cells, three days, read-out: Lymphoma cell lines GI50, HT. An excerpt: (§1) Cytotoxicity of the compounds is the major property determining their anti-lymphoma efficacy in vitro. One of the parameters used, as the basis for cytotoxicity assays, is the metabolic activity of viable cells. For example 2, a microtiter assay, which uses (3-(4,5-dimethylthiazol-2-yl)-2,5-diphenyltetrazolium bromide (MTT), is widely used to quantitate cell proliferation and cytotoxicity. This assay is widely used in drug screening programs and in chemosensitivity testing. Because only metabolically active living cells reduce MTT to correspond purple formazan dye, these assays detect viable cells exclusively. The quantity of reduced MTT corresponds to the number of vital cells in the culture.
(§2) The compounds were assayed using the following lymphoma cell lines: HT (diffuse large B-cell lymphoma, subtype—germinal center B-cell), OCI-LY2 (diffuse large B-cell lymphoma, subtype—germinal center B-cell), MINO (mantle cell lymphoma). All cell lines were grown in RPMI medium supplemented with fetal bovine serum and glutamine and maintained at 37° C. in a humidified atmosphere with 5% CO2. For cytotoxicity assays, 5000-10000 cells were seeded into each well of 96 well plate, allowed to stabilize for at least 8 h and then tested compounds were added at various concentrations ranging from 100 to 0.01 μM in triplicates. After three days, MTT solution (5 mg/ml; Sigma, St. Louis, USA) was added to cells and medium was replaced with DMSO after five hours. The absorbance was measured at 620 nm by employing a microplate reader. MTT assays were repeated 3 times for each drug application and untreated cells were used as reference. The GI50 values, drug concentrations lethal to 50% of the cells, were calculated from the obtained dose response curves.

Assay [3] has as its system OCI-LY2 (diffuse large B-cell lymphoma, subtype—germinal center B-cell). In words: MTT cytotoxicity assay, OCI-LY2 lymphoma cell line. It is filed as cell-based. The conditions noted are these: 72 h, OCI-LY2 cells, three days, read-out: Lymphoma cell lines GI50, OCI-LY2.
Text: as §1, §2

The test system of assay [4] is MINO (mantle cell lymphoma). In words: MTT cytotoxicity assay, MINO lymphoma cell line. The following applies: Homo sapiens, 72 h, MINO cells, three days, read-out: Lymphoma cell lines GI50, MINO. It is filed as cell-based.
Text: as §1, §2

Assay [5] addresses T2, CDK4/Cyclin D1 (Homo sapiens, UniProt P11802).
T2 construct: purchased ProQinase GmbH
In words: CDK4/Cyclin D1 kinase inhibition, [γ-33P]ATP, […] peptide. The following applies: CDK panel, tested at least in duplicates. Type of assay: biochemical. Here is the method:
(§3) CDK2/Cyclin E and CDK1/Cyclin B kinases were produced in Sf9 insect cells via baculoviral infection and purified on a Ni-NTA column (Qiagen). CDK4/Cyclin D1, CDK5/p35NCK, CDK7/Cyclin H/MAT1 and CDK9/Cyclin T1 were purchased from ProQinase GmbH. The kinases were assayed with 1 mg/mL histone H1 (for CDK1/2/5) or (YSPTSPS)2 KK peptide (for CDK7/CDK9) or […] peptide (for CDK4) in the presence of […] (for CDK1/2/4/5/7/9), 0.05 mCi [γ-33P]ATP and of the test compound in a final volume of […], all in a reaction buffer (60 mM HEPES, NaOH, pH 7.5, 3 mM MgCl2, 3 mM MnCl2, 3 mM Na-orthovanadate, 1.2 mM DTT, 2.5 mg/50 ml PEG20.000). The reactions were stopped by adding […] of 3% aq. H3PO4. Aliquots were spotted onto P-81 phosphocellulose (Whatman), washed 3 times with 0.5% aq. H3PO4 and finally air-dried. Kinase inhibition was quantified using a FLA-7000 digital image analyzer (Fujifilm). The concentration of the test compounds required to decrease the CDK activity by 50% was determined from dose response curves and designated as IC50.

In assay [6] the target is T3, CDK9/Cyclin T1 (Homo sapiens, UniProt P50750).
T3 construct: purchased ProQinase GmbH
T3 sequence (P50750 whole entry): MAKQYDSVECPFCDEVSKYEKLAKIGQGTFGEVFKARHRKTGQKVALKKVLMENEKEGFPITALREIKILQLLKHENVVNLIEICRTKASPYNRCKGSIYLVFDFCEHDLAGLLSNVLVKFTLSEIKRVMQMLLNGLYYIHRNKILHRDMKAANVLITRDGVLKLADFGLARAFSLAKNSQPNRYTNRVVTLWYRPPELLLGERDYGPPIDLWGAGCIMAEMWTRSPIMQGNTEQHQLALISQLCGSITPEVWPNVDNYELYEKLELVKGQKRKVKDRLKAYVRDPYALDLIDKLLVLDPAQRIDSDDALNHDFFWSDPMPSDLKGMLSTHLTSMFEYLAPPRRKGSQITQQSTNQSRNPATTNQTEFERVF
T3 sequence (O60563 whole entry partner): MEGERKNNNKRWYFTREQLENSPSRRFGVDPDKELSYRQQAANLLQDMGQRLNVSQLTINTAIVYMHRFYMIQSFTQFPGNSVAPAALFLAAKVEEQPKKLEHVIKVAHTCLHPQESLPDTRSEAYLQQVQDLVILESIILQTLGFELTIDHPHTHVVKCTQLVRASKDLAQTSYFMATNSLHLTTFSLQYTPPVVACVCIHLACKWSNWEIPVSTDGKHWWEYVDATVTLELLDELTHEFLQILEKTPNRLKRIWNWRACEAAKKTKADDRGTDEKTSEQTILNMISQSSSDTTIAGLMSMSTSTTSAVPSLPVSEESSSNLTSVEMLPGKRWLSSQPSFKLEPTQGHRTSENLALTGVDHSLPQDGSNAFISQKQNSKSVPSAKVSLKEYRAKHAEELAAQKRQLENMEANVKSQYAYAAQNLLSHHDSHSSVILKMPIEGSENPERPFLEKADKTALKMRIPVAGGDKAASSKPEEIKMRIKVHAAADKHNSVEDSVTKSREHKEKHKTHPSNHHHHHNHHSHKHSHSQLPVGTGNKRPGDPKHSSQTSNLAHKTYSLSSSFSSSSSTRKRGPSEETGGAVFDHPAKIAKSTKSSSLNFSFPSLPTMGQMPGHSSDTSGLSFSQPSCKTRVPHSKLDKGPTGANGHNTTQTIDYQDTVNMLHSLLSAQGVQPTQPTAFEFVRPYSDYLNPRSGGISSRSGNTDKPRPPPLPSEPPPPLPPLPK
In words: CDK9/Cyclin T1 kinase inhibition, [γ-33P]ATP, (YSPTSPS)2 KK peptide. The following applies: CDK panel, tested at least in duplicates. Type of assay: biochemical. Here is the method:
as §3

Each structure is given as a SMILES string.

T2 sequence (P11802 whole entry): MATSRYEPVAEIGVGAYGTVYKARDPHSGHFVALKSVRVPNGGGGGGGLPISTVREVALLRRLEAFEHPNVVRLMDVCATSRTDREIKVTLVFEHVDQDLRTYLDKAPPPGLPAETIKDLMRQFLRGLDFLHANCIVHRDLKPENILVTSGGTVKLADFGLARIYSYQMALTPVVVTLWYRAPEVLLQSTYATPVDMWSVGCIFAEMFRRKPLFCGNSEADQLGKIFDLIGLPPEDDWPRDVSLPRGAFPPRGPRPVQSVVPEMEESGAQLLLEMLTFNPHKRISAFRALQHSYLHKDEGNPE
T2 sequence (P24385 whole entry partner): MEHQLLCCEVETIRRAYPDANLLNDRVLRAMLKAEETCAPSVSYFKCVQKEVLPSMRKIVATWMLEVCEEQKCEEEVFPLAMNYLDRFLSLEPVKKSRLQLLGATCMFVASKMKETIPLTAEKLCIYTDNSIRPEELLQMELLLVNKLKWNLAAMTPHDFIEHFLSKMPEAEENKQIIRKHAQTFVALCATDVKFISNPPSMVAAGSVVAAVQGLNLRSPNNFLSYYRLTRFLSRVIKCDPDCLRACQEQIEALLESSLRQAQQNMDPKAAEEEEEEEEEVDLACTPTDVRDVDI

On to `CC(C)c1n[nH]c2c(NCc3ccc(-c4ccccn4)cc3)nc(SC3OC(CO)C(O)C(O)C3O)nc12` [Compound 4.22, 5-β-D-Thioglucosid-3-isopropyl-7-[4-(2-pyridyl)benzyl]amino-1(2)H-pyrazolo[4,3-d]pyrimidine], for which, in assay [1], the IC50 is 0.363 µM. Also, the GI50 in assay [2] worked out at 8.07 µM; in assay [3], 25.2 µM; in assay [4], 21.6 µM.

For `CC[C@@H](CO)Nc1nc(NCc2ccc(-c3ccccn3)cc2)c2ncn(C(C)C)c2n1` [CR8, (2S)-2-[[9-propan-2-yl-6-[(4-pyridine-2-ylphenyl)methylamino]purin-2-yl]amino]butan-1-ol], the IC50 in assay [5] was found to be 26.1 µM; in assay [6] it was 0.272 ± 0.038 µM.

(Values after patent publication US11186583B2, “5-alkylthio-7-[(4-arylbenzyl)amino]-1(2)H-pyrazolo[4,3-d]pyrimidines for treatment of lymphoma” (UNIVERZITA PALACKEHO V OLOMOUCI, priority 2018, dated 2021).)
